Laboratory results taken from US20230257480A1, “ENHANCING BLOOD-BRAIN BARRIER DRUG TRANSPORT BY TARGETING ENDOGENOUS REGULATORS” (THE BOARD OF TRUSTEES OF THE LELAND STANFORD JUNIOR …, priority 2019, published 2023).

Test system: brain endothelial cells
Experiment: Flow cytometry of brain endothelial cell uptake of tracer after ALPL inhibitor treatment
Format: in vivo, mice
Details: Atto 647N-labeled plasma, vs vehicle
Source text: FIGS. 14A-14D are graphs illustrating flow cytometry quantification of brain endothelial cell uptake of plasma from young mice (3 m.o.) (FIG. 14A), plasma from aged mice (22 m.o.) (FIG. 14B), human holo-transferrin (hu-Tf) from aged mice (FIG. 14C), or transferrin receptor antibody (TfR Ab) from aged mice (FIG. 14D) treated with vehicle (grey) or anti-ALPL (green) via IP injections twice daily for three days, as assessed by % of BECs that are tracer^+ and relative MFI of tracer^+ BECs (for plasma, n=4; for hu-Tf, n=6 vehicle, n=5 anti-ALPL; for TfR Ab, n=9, two-sided t-test, mean+/−s.e.m.). Tracer refers to plasma, hu-Tf, or TfR Ab. FIG. 14E includes representative images of hu-Tf^+ neurons detected in the cortex of mice treated with ALPL inhibitor. Scale bar=40 microns. […] FIG. 14H includes graphs illustrating flow cytometry quantification of brain endothelial cell and brain parenchymal cell uptake of 3 kDa dextran tracer, which probes for disruptions in paracellular permeability, in young mice (3 m.o.) and aged mice (22 m.o.) (n=6 vehicle, n=5 anti-ALPL, two-sided t-test, mean+/−s.e.m.).
CNS cell isolation adopted previously described methods42,139,140. […] For analysis of plasma uptake, at least 1,000 cells of each population of interest were analyzed per sample. […]

COc1ccc(OC)c(S(=O)(=O)Nc2cnc3ccccc3c2)c1 [ALPL inhibitor, 2,5-Dimethoxy-N-(quinolin-3-yl)benzenesulfonamide]
plasma uptake in brain endothelial cells, aged mice (aged (22 m.o.) mice): increased | plasma uptake in brain endothelial cells, young mice (young (3 m.o.) mice): increased
